This is an account of results in patent US11186572B2, “Bacterial glutaminyl cyclases and inhibitors thereof for use in the treatment of periodontitis” (Fraunhofer-Gesellschaft zur Forderung der Angewandten …, priority 2016, dated 2021).

The target in this test is T1, PgQC (Porphyromonas gingivalis, UniProt Q7MT37).
T1 construct: Ki; RA (average residual QC activity of PgQC); other: c = 1 μM; other: c = 1.5 μM; other: c = 10 μM; other: c = 100 μM; other: c = 12 μM; RA; fused on or other part: N-terminal His tag from pET28a(+), cleaved off by thrombin before the enzymatic characterisation
In words: biochemical. Set-up: species or system P. gingivalis. Particulars: for Ki: inhibition of PgQC, H-Gln-AMC, 50 mM Tris-HCl, 50 mM NaCl pH 8.0, 30° C. On the procedure: The assay consists of varying concentration of the fluorogenic substrate and 0.5 U pyroglutaminyl aminopeptidase in 50 mM Tris-HCl, 50 mM NaCl at pH 8.0. After 10 minute incubation time at 30° C. reaction was initiated by addition of bacQC to a final volume of 125 μl reaction mixture. […] All determinations were carried out in 96 well microtiter plates (Fisher Scientific) at 30° C. using the FluoStar Optima (BMG Labtech).
For inhibitor testing, the sample composition was the same as described above, except for the addition of the putative inhibitory compound. […] (∘) represents reaction without inhibitor. Determinations were carried out in 50 mM Tris-HCl, 50 mM NaCl pH 8.0 and 1% (v/v) DMSO at 30° C.
RA refers to the average residual QC activity of PgQC measured in the presence of a concentration c of the respective compound. Ki refers to the average Ki values measured as described above, and Std(Ki) refers to the standard deviation of Ki.

Setting [1] is: read-out: RA (average residual QC activity of PgQC).

Structures are written as SMILES. Read-outs that look alike come from different tables or passages of the source.

`COc1cccc(C(=O)N2CCc3[nH]cnc3C2)c1` [MWT-S-00158, (3-Methoxyphenyl)-(3,4,6,7-tetrahydroimidazo[4,5-c]pyridin-5-yl)methanone]: the Ki (read-out: Ki (average)) is 0.335 µM. In addition, the remaining activity at 2 µM under setting [1] turned out to be 21%.

Turning to `c1cc(CN2CCc3[nH]cnc3C2)cc(N2CCCC2)c1` [MWT-S-00361, 5-[(3-Pyrrolidin-1-ylphenyl)methyl]-1,4,6,7-tetrahydroimidazo[4,5-c]pyridine], the remaining activity at 1 µM under setting [1] stood at 80%.

For `c1ccc(CN2CCc3[nH]cnc3C2)cc1` [MWT-S-00139, 5-Benzyl-3,4,6,7-tetrahydroimidazo[4,5-c]pyridine], the inhibition constant (Ki) (read-out: Ki (average)) stood at 0.909 µM. Besides, the remaining activity at 8 µM under setting [1] came out at 18%.

In the case of `O=C(c1ccc(-c2ccccc2)cc1)N1CCc2[nH]cnc2C1` [MWT-S-00428, [1,1′-Biphenyl]-4-yl(1,4,6,7-tetrahydro-5H-imidazo[4,5-c]pyridin-5-yl)methanone], the Ki (read-out: Ki (average)) turned out to be 1.9 µM. The remaining activity at 1 µM under setting [1] turned out to be 83%.

On to `O=C(c1cccc(F)c1)N1CCc2[nH]cnc2C1` [MWT-S-00430, (3-Fluorophenyl)(1,4,6,7-tetrahydro-5H-imidazo[4,5-c]pyridin-5-yl)methanone], for which the remaining activity at 1 µM under setting [1] stood at 40%.

As to `O=C(c1cc(F)c(F)c(F)c1)N1CCc2[nH]cnc2C1` [MWT-S-00435, (1,4,6,7-Tetrahydro-5H-imidazo[4,5-c]pyridin-5-yl)(3,4,5-trifluoro-phenyl)methanone], the Ki (read-out: Ki (average)) stood at 0.904 µM. In addition, the remaining activity at 10 µM under setting [1] is 16%.

In the case of `O=C(c1cccc(Cl)c1)N1CCc2[nH]cnc2C1` [MWT-S-00425, (3-Chlorophenyl)(1,4,6,7-tetrahydro-5H-imidazo[4,5-c]pyridin-5-yl)methanone], for the setting “read-out: Ki (average)”, the inhibition constant (Ki) was 0.174 µM. In addition, the remaining activity at 10 µM under setting [1] came out at 5%.

`Clc1ccc(CN2CCc3[nH]cnc3C2)cc1` [MWT-S-00421, 5-[(4-Chlorophenyl)methyl]-1,4,6,7-tetrahydroimidazo[4,5-c]pyridine]: the Ki (Ki (average)) was determined as 0.54 µM. Also, the remaining activity at 10 µM under setting [1] came out at 11%.

For the compound `c1ccc(CCN2CCc3[nH]cnc3C2)cc1` [MWT-S-00145, 5-(2-Phenylethyl)-3,4,6,7-tetrahydroimidazo[4,5-c]pyridine], where the note is “read-out: Ki (average)”, the inhibition constant Ki is 6.47 µM. In addition, the remaining activity at 40 µM under setting [1] is 21%.

`FC1(F)Oc2ccc(CN3CCc4[nH]cnc4C3)cc2O1` [MWT-S-00344, 5-[(2,2-Difluoro-1,3-benzodioxol-5-yl)methyl]-1,4,6,7-tetrahydro-imidazo[4,5-c]pyridine]: the remaining activity at 1 µM under setting [1] turned out to be 56%.

On to `COc1ccc(C(=O)N2CCc3[nH]cnc3C2)cc1` [MWT-S-00157, (4-Methoxyphenyl)-(3,4,6,7-tetrahydroimidazo[4,5-c]pyridin-5-yl)methanone], for which, for the setting “read-out: Ki (average)”, the Ki was 0.833 µM. Further, the remaining activity at 5 µM under setting [1] is 24%.

Regarding `CCCCOc1ccc(CN2CCc3[nH]cnc3C2)cc1` [MWT-S-00331, 5-[(4-Butoxyphenyl)methyl]-1,4,6,7-tetrahydroimidazo[4,5-c]pyridine], the affinity (Ki (average)) corresponds to a Ki of 0.254 µM. For the same compound, the remaining activity at 1.5 µM under setting [1] amounted to 26%.

For the compound `c1ccc(CN2CCc3[nH]cnc3C2c2ccccc2)cc1` (stereo not shown) [MWT-S-00268, 5-Benzyl-4-phenyl-3,4,6,7-tetrahydroimidazo[4,5-c]pyridine], under setting [1], the remaining activity at 16 µM was 93%.

Take `O=C(c1ccc(Cl)cc1)N1CCc2[nH]cnc2C1` [MWT-S-00160, (4-Chlorophenyl)-(3,4,6,7-tetrahydroimidazo[4,5-c]pyridin-5-yl)methanone]: where the note is “read-out: Ki (average)”, the inhibition constant (Ki) came out at 0.681 µM. For the same compound, the remaining activity at 5 µM under setting [1] was determined as 20%.

For the compound `CCCOc1cccc(C(=O)N2CCc3[nH]cnc3C2)c1` [MWT-S-00432, (3-Propoxyphenyl)(1,4,6,7-tetrahydro-5H-imidazo[4,5-c]pyridin-5-yl)methanone], the Ki (read-out: Ki (average)) came to 0.78 µM. Also, the remaining activity at 100 µM under setting [1] was 2%.

For `CC1c2nc[nH]c2CCN1Cc1ccccc1` (stereo not shown) [MWT-S-00265, 5-Benzyl-4-methyl-3,4,6,7-tetrahydroimidazo[4,5-c]pyridine], where the note is “read-out: Ki (average)”, the Ki was 3.08 µM. The remaining activity at 20 µM under setting [1] worked out at 21%.

On to `c1nc2c([nH]1)CCN(Cc1ccc3c(c1)OCCO3)C2` [MWT-S-00380, 5-(2,3-Dihydro-1,4-benzodioxin-6-ylmethyl)-1,4,6,7-tetrahydro-imidazo[4,5-c]pyridine], for which the inhibition constant Ki (Ki (average)) was found to be 0.311 µM. The remaining activity at 1 µM under setting [1] came out at 39%.

For `O=C(CCc1ccccc1)N1CCc2[nH]cnc2C1` [MWT-S-00147, 3-Phenyl-1-(3,4,6,7-tetrahydroimidazo[4,5-c]pyridin-5-yl)propan-1-one], the Ki (read-out: Ki (average)) turned out to be 1.75 µM. Under setting [1], the remaining activity at 12 µM is 22%.

For the setting “Ki (average)”, `COC(=O)/C=C/CN1CCc2[nH]cnc2C1` [MWT-S-00138, Methyl (E)-4-(3,4,6,7-tetrahydroimidazo[4,5-c]pyridin-5-yl)but-2-enoate] registered a Ki of 3 µM. Moreover, under setting [1], the remaining activity at 20 µM was determined as 21%.

On to `O=C(c1ccc2ccccc2c1)N1CCc2[nH]cnc2C1` [MWT-S-00440, Naphthalen-2-yl(1,4,6,7-tetrahydro-5H-imidazo[4,5-c]pyridin-5-yl)methanone], for which the inhibition constant (Ki) (read-out: Ki (average)) amounted to 0.126 µM. In addition, the remaining activity at 10 µM under setting [1] was 4%.

On to `c1ccc(C2NCCc3[nH]cnc32)cc1` (stereo not shown) [MWT-S-00264], for which the remaining activity at 100 µM under setting [1] worked out at 92%.

Compound `Clc1ccc(CN2CCc3[nH]cnc3C2)cc1Cl` [MWT-S-00423, 5-[(3,4-Dichlorophenyl)methyl]-1,4,6,7-tetrahydroimidazo[4,5-c]pyridine] displayed a Ki (Ki (average)) of 0.367 µM. Also, the remaining activity at 10 µM under setting [1] came out at 8%.

With `CC1c2nc[nH]c2CCN1Cc1cc(F)c(F)c(F)c1` (stereo not shown) [MWT-S-00267, 4-Methyl-5-[(3,4,5-trifluorophenyl)methyl]-3,4,6,7-tetrahydro-imidazo[4,5-c]pyridine], the affinity (Ki (average)) corresponds to a Ki of 0.528 µM. Further, the remaining activity at 4 µM under setting [1] is 20%.

`Cc1ccc(CN2CCc3[nH]cnc3C2)cc1` [MWT-S-00420, 5-(p-Tolylmethyl)-1,4,6,7-tetrahydroimidazo[4,5-c]pyridine] had a Ki (Ki (average)) of 0.806 µM. Moreover, the remaining activity at 10 µM under setting [1] was 16%.

`c1nc2c([nH]1)CCN(Cc1ccc(OCCN3CCOCC3)cc1)C2` [MWT-S-00330, 4-[2-[4-(1,4,6,7-Tetrahydroimidazo[4,5-c]pyridin-5-ylmethyl)phenoxy]ethyl]morpholine] showed a Ki (Ki (average)) of 0.94 µM. The remaining activity at 8 µM under setting [1] stood at 22%.

On to `O=C(c1ccccc1)N1CCc2[nH]cnc2C1` [MWT-S-00149, Phenyl(3,4,6,7-tetrahydroimidazo[4,5-c]pyridin-5-yl)methanone], for which the Ki (read-out: Ki (average)) was determined as 0.435 µM. The remaining activity at 4 µM under setting [1] amounted to 20%.

Take `Fc1cc(CN2CCc3[nH]cnc3C23COC3)cc(F)c1F` [MWT-S-00266, 5-[(3,4,5-Trifluorophenyl)methyl]spiro[6,7-dihydro-3H-imidazo[4,5-c]pyridine-4,3′-oxetane]]: for the setting “Ki (average)”, the inhibition constant (Ki) came out at 0.556 µM. In addition, the remaining activity at 4 µM under setting [1] stood at 19%.

In the case of `Fc1cc(CN2CCc3[nH]cnc3C2c2ccccc2)cc(F)c1F` (stereo not shown) [MWT-S-00261, 4-Phenyl-5-[(3,4,5-trifluorophenyl)methyl]-3,4,6,7-tetrahydroimidazo[4,5-c]pyridine], the remaining activity at 20 µM under setting [1] was found to be 93%.

Consider `O=C(c1cccc(-c2ccccc2)c1)N1CCc2[nH]cnc2C1` [MWT-S-00433, [1,1′-Biphenyl]-3-yl(1,4,6,7-tetrahydro-5H-imidazo[4,5-c]pyridin-5-yl)methanone], for which, where the note is “read-out: Ki (average)”, the Ki was found to be 0.547 µM. Further, the remaining activity at 1 µM under setting [1] amounted to 47%.

For `COc1cccc(CN2CCc3[nH]cnc3C2)c1` [MWT-S-00343, 5-[(3-Methoxyphenyl)methyl]-1,4,6,7-tetrahydroimidazo[4,5-c]pyridine], the remaining activity at 1 µM under setting [1] turned out to be 65%.

On to `O=C(c1ccc2c(c1)OCO2)N1CCc2[nH]cnc2C1` [MWT-S-00427, Benzo[d][1,3]dioxol-5-yl(1,4,6,7-tetrahydro-5H-imidazo[4,5-c]pyridin-5-yl)methanone], for which, for the setting “read-out: Ki (average)”, the Ki amounted to 0.56 µM. In addition, the remaining activity at 10 µM under setting [1] was 13%.

Where the note is “Ki (average)”, `c1ccc(COc2ccc(CN3CCc4[nH]cnc4C3)cc2)cc1` [MWT-S-00359, 5-[(4-Benzyloxyphenyl)methyl]-1,4,6,7-tetrahydroimidazo[4,5-c]pyridine] registered a Ki of 0.192 µM. Further, the remaining activity at 1 µM under setting [1] was found to be 31%.

As for `CC1c2nc[nH]c2CCN1C(=O)c1ccccc1` (stereo not shown) [MWT-S-00327], the remaining activity at 100 µM under setting [1] turned out to be 18%.

Turning to `O=C(c1ccc(F)cc1)N1CCc2[nH]cnc2C1` [MWT-S-00156, (4-Fluorophenyl)-(3,4,6,7-tetrahydroimidazo[4,5-c]pyridin-5-yl)methanone], the Ki (read-out: Ki (average)) amounted to 0.879 µM. For the same compound, under setting [1], the remaining activity at 5 µM came out at 24%.

As for `COc1cc(OC)cc(C(=O)N2CCc3[nH]cnc3C2)c1` [MWT-S-00429, (3,5-Dimethoxyphenyl)(1,4,6,7-tetrahydro-5H-imidazo[4,5-c]pyridin-5-yl)methanone], for the setting “read-out: Ki (average)”, the Ki turned out to be 0.928 µM. Further, the remaining activity at 10 µM under setting [1] stood at 16%.

Take `O=C(c1ccc(Cl)c(Cl)c1)N1CCc2[nH]cnc2C1` [MWT-S-00159, (3,4-Dichlorophenyl)-(3,4,6,7-tetrahydroimidazo[4,5-c]pyridin-5-yl)methanone]: the inhibition constant (Ki) (read-out: Ki (average)) turned out to be 0.257 µM. The remaining activity at 2 µM under setting [1] was 18%.

For orientation: Ki means the dissociation constant of the complex between target and ligand, obtained from inhibition or displacement.
